In ChEMBL document CHEMBL5649169 (ChemMedChem, 2018):

Experiments:
[1] = target: Activin receptor type-1 (Homo sapiens) (UniProt Q04771); note: assay method not described here
[2] = target: WASH complex subunit 5 (Homo sapiens) (UniProt Q12768); note: assay method not described here
[3] = target: Far upstream element-binding protein 2 (Homo sapiens) (UniProt Q92945); note: assay method not described here
[4] = target: Heterogeneous nuclear ribonucleoprotein A3 (Homo sapiens) (UniProt P51991); note: assay method not described here
[5] = target: Triosephosphate isomerase (Homo sapiens) (UniProt P60174); note: assay method not described here
[6] = target: Transmembrane protein 43 (Homo sapiens) (UniProt Q9BTV4); note: assay method not described here
Chain of Transmembrane protein 43 (Homo sapiens) (Q9BTV4 whole entry): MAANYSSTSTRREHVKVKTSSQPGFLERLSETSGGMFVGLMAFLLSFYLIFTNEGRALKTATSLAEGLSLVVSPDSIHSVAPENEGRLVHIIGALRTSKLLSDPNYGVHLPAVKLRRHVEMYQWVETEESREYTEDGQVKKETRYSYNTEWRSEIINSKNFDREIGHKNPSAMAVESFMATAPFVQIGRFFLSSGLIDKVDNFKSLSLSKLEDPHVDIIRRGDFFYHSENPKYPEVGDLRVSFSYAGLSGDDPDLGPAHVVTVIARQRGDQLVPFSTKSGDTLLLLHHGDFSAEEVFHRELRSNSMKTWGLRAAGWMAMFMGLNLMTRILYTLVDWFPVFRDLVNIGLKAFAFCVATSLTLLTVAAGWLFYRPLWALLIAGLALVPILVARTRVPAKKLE

[7] = target: Protein kinase C alpha type (Homo sapiens) (UniProt P17252); note: assay method not described here
[8] = target: Serine/threonine-protein kinase MRCK gamma (Homo sapiens) (UniProt Q6DT37); note: assay method not described here
[9] = target: Cytochrome c1, heme protein, mitochondrial (Homo sapiens) (UniProt P08574); note: assay method not described here
Chain of Cytochrome c1, heme protein, mitochondrial (Homo sapiens) (P08574 whole entry): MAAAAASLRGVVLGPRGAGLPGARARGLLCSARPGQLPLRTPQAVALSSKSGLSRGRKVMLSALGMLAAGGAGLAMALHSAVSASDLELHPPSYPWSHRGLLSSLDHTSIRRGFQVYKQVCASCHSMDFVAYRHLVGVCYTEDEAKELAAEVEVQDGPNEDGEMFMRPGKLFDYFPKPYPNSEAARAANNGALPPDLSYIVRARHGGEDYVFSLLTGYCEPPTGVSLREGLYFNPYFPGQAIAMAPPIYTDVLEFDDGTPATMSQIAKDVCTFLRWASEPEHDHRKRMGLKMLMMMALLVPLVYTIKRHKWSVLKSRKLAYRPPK

[10] = target: Fatty acyl-CoA reductase 1 (Homo sapiens) (UniProt Q8WVX9); note: assay method not described here
Chain of Fatty acyl-CoA reductase 1 (Homo sapiens) (Q8WVX9 whole entry): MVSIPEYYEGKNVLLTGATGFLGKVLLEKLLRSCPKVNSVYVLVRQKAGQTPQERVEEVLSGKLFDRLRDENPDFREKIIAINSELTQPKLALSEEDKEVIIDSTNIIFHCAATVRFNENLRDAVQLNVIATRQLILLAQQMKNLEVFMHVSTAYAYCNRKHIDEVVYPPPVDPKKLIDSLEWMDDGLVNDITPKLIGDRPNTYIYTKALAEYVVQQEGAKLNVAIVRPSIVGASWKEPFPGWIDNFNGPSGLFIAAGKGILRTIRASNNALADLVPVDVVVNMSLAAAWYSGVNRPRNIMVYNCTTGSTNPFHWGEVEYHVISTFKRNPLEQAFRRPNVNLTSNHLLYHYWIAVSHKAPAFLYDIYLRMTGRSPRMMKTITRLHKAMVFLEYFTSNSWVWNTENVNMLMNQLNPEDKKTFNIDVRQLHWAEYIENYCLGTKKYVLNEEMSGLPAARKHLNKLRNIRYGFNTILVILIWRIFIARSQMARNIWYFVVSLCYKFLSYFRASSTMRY

[11] = target: Cyclin-dependent kinase 7 (Homo sapiens) (UniProt P50613); note: assay method not described here
Chain of Cyclin-dependent kinase 7 (Homo sapiens) (P50613 whole entry): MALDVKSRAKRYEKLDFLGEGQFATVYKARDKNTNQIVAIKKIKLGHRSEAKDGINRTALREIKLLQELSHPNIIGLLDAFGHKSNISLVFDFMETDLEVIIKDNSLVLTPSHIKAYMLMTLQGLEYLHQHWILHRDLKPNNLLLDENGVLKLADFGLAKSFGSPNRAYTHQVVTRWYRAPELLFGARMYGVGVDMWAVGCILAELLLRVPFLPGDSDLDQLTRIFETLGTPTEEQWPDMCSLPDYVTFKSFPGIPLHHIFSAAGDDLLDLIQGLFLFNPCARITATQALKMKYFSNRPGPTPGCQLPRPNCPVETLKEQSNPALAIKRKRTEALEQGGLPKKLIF

[12] = target: Small ribosomal subunit protein eS27 (Homo sapiens) (UniProt P42677); note: assay method not described here
[13] = target: Probable ATP-dependent RNA helicase DDX5 (Homo sapiens) (UniProt P17844); note: assay method not described here
[14] = target: Ephrin type-B receptor 6 (Homo sapiens) (UniProt O15197); note: assay method not described here
[15] = target: Eukaryotic translation initiation factor 3 subunit B (Homo sapiens) (UniProt P55884); note: assay method not described here
Filamin-A (Homo sapiens) = Filamin-A (Homo sapiens) (UniProt P21333); note: assay method not described here
[16] = target: Protein LSM12 (Homo sapiens) (UniProt Q3MHD2); note: assay method not described here
Chain of Protein LSM12 (Homo sapiens) (Q3MHD2 whole entry): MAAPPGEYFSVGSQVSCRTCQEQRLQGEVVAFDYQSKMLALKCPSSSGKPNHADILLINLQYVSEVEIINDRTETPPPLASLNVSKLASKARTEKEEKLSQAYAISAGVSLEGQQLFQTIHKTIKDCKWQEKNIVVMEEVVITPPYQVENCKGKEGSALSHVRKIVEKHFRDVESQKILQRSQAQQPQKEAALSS

[17] = target: Protein MON2 homolog (Homo sapiens) (UniProt Q7Z3U7); note: assay method not described here
Chain of Protein MON2 homolog (Homo sapiens) (Q7Z3U7 whole entry): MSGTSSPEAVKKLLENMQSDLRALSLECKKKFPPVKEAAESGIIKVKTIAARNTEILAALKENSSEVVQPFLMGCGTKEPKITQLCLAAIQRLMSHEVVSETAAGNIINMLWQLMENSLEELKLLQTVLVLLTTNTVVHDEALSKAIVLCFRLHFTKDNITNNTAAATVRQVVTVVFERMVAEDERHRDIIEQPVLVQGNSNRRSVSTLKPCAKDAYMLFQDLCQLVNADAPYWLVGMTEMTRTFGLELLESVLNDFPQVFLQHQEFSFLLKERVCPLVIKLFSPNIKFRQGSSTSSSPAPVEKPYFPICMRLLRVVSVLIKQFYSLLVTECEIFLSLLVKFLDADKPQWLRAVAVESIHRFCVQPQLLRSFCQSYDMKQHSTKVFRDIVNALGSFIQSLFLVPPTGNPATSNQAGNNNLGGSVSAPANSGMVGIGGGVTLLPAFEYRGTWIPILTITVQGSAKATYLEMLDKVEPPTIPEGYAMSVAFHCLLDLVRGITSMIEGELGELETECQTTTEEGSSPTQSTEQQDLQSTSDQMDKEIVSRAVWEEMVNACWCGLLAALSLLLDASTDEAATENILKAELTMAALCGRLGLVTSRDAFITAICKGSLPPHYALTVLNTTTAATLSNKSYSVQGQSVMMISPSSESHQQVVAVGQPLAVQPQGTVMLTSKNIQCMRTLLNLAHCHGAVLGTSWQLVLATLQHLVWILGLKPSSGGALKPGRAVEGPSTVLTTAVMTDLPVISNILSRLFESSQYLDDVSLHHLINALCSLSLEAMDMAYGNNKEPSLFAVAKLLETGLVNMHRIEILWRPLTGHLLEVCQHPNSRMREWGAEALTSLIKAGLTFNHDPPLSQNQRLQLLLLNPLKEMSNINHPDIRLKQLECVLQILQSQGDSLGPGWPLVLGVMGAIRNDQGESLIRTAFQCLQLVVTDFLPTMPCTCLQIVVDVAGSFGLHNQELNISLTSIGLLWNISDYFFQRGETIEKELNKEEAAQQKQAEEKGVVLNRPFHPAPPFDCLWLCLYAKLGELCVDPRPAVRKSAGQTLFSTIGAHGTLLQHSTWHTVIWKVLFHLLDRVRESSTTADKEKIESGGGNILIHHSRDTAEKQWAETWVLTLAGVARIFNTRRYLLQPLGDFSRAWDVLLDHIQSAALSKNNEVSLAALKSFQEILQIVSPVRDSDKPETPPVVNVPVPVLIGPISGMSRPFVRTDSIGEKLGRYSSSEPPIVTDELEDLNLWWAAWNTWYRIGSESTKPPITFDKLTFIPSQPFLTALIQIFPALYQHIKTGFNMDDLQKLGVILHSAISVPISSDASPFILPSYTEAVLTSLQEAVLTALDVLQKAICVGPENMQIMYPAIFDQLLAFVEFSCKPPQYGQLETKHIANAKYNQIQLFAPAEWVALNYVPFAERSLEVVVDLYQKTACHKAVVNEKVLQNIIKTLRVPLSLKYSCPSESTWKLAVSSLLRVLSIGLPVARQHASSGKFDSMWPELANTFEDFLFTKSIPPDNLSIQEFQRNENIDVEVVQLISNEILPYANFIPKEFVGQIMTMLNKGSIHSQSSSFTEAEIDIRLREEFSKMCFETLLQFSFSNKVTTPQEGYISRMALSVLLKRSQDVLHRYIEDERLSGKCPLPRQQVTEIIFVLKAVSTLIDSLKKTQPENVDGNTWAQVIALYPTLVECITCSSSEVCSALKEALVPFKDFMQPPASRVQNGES

[18] = target: Transitional endoplasmic reticulum ATPase (Homo sapiens) (UniProt P55072); note: assay method not described here
[19] = target: Synaptic vesicle membrane protein VAT-1 homolog (Homo sapiens) (UniProt Q99536); note: assay method not described here
Moesin (Homo sapiens) = Moesin (Homo sapiens) (UniProt P26038); note: assay method not described here
[20] = target: Eukaryotic translation initiation factor 3 subunit J (Homo sapiens) (UniProt O75822); note: assay method not described here
[21] = target: CDGSH iron-sulfur domain-containing protein 2 (Homo sapiens) (UniProt Q8N5K1); note: assay method not described here
Chain of CDGSH iron-sulfur domain-containing protein 2 (Homo sapiens) (Q8N5K1 whole entry, the tested form may be a part): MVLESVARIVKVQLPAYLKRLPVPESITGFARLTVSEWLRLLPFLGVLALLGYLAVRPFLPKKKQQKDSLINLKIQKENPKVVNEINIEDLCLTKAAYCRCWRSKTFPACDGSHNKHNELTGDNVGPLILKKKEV

[22] = target: NADH dehydrogenase [ubiquinone] iron-sulfur protein 2, mitochondrial (Homo sapiens) (UniProt O75306); note: assay method not described here
[23] = target: 26S proteasome non-ATPase regulatory subunit 12 (Homo sapiens) (UniProt O00232); note: assay method not described here
Chain of 26S proteasome non-ATPase regulatory subunit 12 (Homo sapiens) (O00232 whole entry): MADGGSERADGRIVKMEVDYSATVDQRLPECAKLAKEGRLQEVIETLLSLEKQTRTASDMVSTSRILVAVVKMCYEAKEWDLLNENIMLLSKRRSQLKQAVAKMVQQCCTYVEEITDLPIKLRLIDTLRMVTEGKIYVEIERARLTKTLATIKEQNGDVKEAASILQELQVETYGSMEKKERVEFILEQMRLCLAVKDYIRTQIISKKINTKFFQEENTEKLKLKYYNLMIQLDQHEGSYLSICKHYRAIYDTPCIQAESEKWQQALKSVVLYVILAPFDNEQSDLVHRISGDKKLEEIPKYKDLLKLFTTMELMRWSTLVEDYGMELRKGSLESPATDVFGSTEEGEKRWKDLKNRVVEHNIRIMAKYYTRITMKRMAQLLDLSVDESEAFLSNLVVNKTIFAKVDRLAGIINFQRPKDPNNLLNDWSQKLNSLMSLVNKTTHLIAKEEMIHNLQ

[24] = target: Mitogen-activated protein kinase kinase kinase 20 (Homo sapiens) (UniProt Q9NYL2); note: assay method not described here
[25] = target: Large ribosomal subunit protein eL30 (Homo sapiens) (UniProt P62888); note: assay method not described here
[26] = target: Coatomer subunit alpha (Homo sapiens) (UniProt P53621); note: assay method not described here
[27] = target: Transferrin receptor protein 1 (Homo sapiens) (UniProt P02786); note: assay method not described here
[28] = target: AP-2 complex subunit sigma (Homo sapiens) (UniProt P53680); note: assay method not described here
[29] = target: Serine/threonine-protein kinase Nek7 (Homo sapiens) (UniProt Q8TDX7); note: assay method not described here
Chain of Serine/threonine-protein kinase Nek7 (Homo sapiens) (Q8TDX7 whole entry, looked up): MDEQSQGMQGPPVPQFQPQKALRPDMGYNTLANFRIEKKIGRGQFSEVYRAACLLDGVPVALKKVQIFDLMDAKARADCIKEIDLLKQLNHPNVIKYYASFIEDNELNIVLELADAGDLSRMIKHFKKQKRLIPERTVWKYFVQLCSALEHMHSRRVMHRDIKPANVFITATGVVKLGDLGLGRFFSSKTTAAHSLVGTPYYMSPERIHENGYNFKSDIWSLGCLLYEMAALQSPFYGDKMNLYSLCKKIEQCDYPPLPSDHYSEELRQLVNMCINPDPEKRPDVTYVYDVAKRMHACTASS

[30] = target: Serine/threonine-protein kinase Nek2 (Homo sapiens) (UniProt P51955); note: assay method not described here
[31] = target: Putative divalent cation/proton antiporter TMEM165 (Homo sapiens) (UniProt Q9HC07); note: assay method not described here
[32] = target: PCI domain-containing protein 2 (Homo sapiens) (UniProt Q5JVF3); note: assay method not described here
[33] = target: Protein disulfide-isomerase (Homo sapiens) (UniProt P07237); note: assay method not described here
[34] = target: Small ribosomal subunit protein eS6 (Homo sapiens) (UniProt P62753); note: assay method not described here
[35] = target: RNA cytidine acetyltransferase (Homo sapiens) (UniProt Q9H0A0); note: assay method not described here
[36] = target: Interleukin-1 receptor-associated kinase 1 (Homo sapiens) (UniProt P51617); note: assay method not described here
[37] = target: Mitogen-activated protein kinase kinase kinase kinase 1 (Homo sapiens) (UniProt Q92918); note: assay method not described here
[38] = target: Carboxymethylenebutenolidase homolog (Homo sapiens) (UniProt Q96DG6); note: assay method not described here
Chain of Carboxymethylenebutenolidase homolog (Homo sapiens) (Q96DG6 whole entry): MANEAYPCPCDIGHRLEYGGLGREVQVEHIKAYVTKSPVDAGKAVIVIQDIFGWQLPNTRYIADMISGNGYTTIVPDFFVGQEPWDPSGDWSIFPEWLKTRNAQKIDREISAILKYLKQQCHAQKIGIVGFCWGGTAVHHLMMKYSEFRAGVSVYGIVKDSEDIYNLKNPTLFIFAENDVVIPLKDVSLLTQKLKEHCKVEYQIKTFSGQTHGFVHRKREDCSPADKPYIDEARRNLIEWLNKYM

[39] = target: Transcription intermediary factor 1-beta (Homo sapiens) (UniProt Q13263); note: assay method not described here
[40] = target: Stomatin-like protein 2, mitochondrial (Homo sapiens) (UniProt Q9UJZ1); note: assay method not described here
[41] = target: Large ribosomal subunit protein uL5 (Homo sapiens) (UniProt P62913); note: assay method not described here
[42] = target: Microtubule-associated protein RP/EB family member 2 (Homo sapiens) (UniProt Q15555); note: assay method not described here
Chain of Microtubule-associated protein RP/EB family member 2 (Homo sapiens) (Q15555 whole entry, the tested form may be a part): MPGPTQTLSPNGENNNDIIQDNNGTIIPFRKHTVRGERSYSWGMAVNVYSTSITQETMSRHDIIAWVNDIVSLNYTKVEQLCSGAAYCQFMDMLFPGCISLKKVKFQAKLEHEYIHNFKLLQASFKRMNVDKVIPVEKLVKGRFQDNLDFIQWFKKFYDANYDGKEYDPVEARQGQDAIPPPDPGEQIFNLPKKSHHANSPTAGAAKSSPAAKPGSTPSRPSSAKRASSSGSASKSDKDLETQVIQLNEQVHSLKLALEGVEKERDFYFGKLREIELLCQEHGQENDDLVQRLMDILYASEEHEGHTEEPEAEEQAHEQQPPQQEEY

Ephrin type-B receptor 3 = Ephrin type-B receptor 3 (Homo sapiens, UniProt P54753); assay: Inhibition of Nano Luc-fused full length C-terminal EPHB3 (unknown origin) expressed in HEK293T cells using NanoGlo as substrate incubated for 2 hrs in presence of tracer by NanoBRET assay; format: cell-based
Throughout, for ED50: assay method not described here.

`Cc1ccc(C(=O)Nc2cccc(C(F)(F)F)c2)cc1Nc1nc(-c2cccnc2)nc2c1cnn2C` was tested, and the ED50 [1] was 0.00315 µM, the ED50 [2] was 0.000337 µM and the ED50 [3] was 1.03 µM. For the same compound, the ED50 [4] was 0.174 µM, the ED50 [5] was 0.183 µM and the ED50 [6] was 0.00615 µM. It also gave an ED50 [7] of 0.151 µM, an ED50 [8] of 17.5 µM and an ED50 [9] of 0.00055 µM. For the same compound, the ED50 [10] was 4.69 µM, the ED50 [11] was 0.0338 µM and the ED50 [12] was 7.65 µM. The ED50 [13] was 1.16 µM, the ED50 [14] was 0.364 µM and the ED50 [15] was 9.87 µM. For the same compound, the ED50 (Filamin-A (Homo sapiens)) was 7.88 µM, the ED50 [16] was 0.00519 µM and the ED50 [17] was 0.00382 µM. The ED50 [18] was 5.07 µM, the ED50 [19] was 7.96 µM and the ED50 (Moesin (Homo sapiens)) was 10.7 µM. The ED50 [20] was 0.126 µM, the ED50 [21] was 3.1 µM and the ED50 [22] was 0.0453 µM. The ED50 [23] was 3.2 µM, the ED50 [24] was 0.907 µM and the ED50 (Homo sapiens) was 0.00517 µM. For the same compound, the ED50 [25] was 0.0257 µM, the ED50 [26] was 0.127 µM and the ED50 [27] was 0.1 µM. It also gave an ED50 [28] of 0.678 µM, an ED50 [29] of 0.46 µM and an ED50 [30] of 0.011 µM. For the same compound, the ED50 [31] was 8.83 µM, the ED50 [32] was 1.92 µM and the ED50 [33] was 4.25 µM. The ED50 [34] was 0.0144 µM, the ED50 [35] was 0.000302 µM and the ED50 [36] was 14.6 µM. The ED50 [37] was 5.28 µM, the ED50 [38] was 0.671 µM and the ED50 [39] was 59.2 µM. The ED50 [40] was 0.0199 µM, the ED50 [41] was 0.0395 µM and the ED50 [42] was 0.0302 µM. For the same compound, the IC50 (Ephrin type-B receptor 3) was 0.006 µM.
In the case of `Cc1ccc(C(=O)Nc2cccc(C(F)(F)F)c2)cc1Nc1nc(-c2cccnc2)nc2nn(C)cc12`, the ED50 [1] is reported as 34000 µM, the ED50 [2] is reported as 3.06 µM and the ED50 [3] is reported as 4.03 µM. For the same compound, the ED50 [4] was 1.07 µM, the ED50 [5] was 0.0625 µM and the ED50 [6] was 10.6 µM. For the same compound, the ED50 [7] was 0.00201 µM, the ED50 [8] was 0.0947 µM and the ED50 [9] was 0.0293 µM. For the same compound, the ED50 [10] was 113 µM, the ED50 [11] was 0.0647 µM and the ED50 [12] was 0.47 µM. For the same compound, the ED50 [13] was 0.0157 µM, the ED50 [14] was 6.14 µM and the ED50 [15] was 0.00195 µM. The ED50 (Filamin-A (Homo sapiens)) was 21.4 µM, the ED50 [16] was 5.58 µM and the ED50 [17] was 0.191 µM. The ED50 [18] was 0.0706 µM, the ED50 [19] was 145 µM and the ED50 (Moesin (Homo sapiens)) was 0.256 µM. The ED50 [20] was 0.54 µM, the ED50 [21] was 0.0591 µM and the ED50 [22] was 1.24 µM. For the same compound, the ED50 [23] was 0.0504 µM, the ED50 [24] was 7.75 µM and the ED50 (Homo sapiens) was 22.8 µM. For the same compound, the ED50 [25] was 1.58 µM, the ED50 [26] was 0.652 µM and the ED50 [27] was 7.34 µM. For the same compound, the ED50 [28] was 0.0179 µM, the ED50 [29] was 0.203 µM and the ED50 [30] was 0.324 µM. The ED50 [31] was 0.0171 µM, the ED50 [32] was 1450 µM and the ED50 [33] was 11.7 µM. It also gave an ED50 [34] of 0.061 µM, an ED50 [35] of 0.235 µM and an ED50 [36] of 0.0479 µM. For the same compound, the ED50 [37] was 0.334 µM, the ED50 [38] was 0.0561 µM and the ED50 [39] was 0.0787 µM. It also gave an ED50 [40] of 0.0386 µM, an ED50 [41] of 1.63 µM and an ED50 [42] of 35 µM. For the same compound, the IC50 (Ephrin type-B receptor 3) was 0.191 µM.
